According to US20100168102A9, “Amide Derivatives as Kinase Inhibitors” (Devgen NV, priority 2005, published 2010):

Assays:
PKC epsilon = molecular target: T1, PKC epsilon (Homo sapiens, UniProt Q02156); test: Biochemical assay for PKC epsilon (fluorescence polarization, Protein Kinase C Assay Kit, Red); conditions: compounds of Formula XIV, Table 3; read-out: IC50 μM PKCε
T1 construct: purchased Invitrogen P2282
T1 sequence (Q02156 1-737): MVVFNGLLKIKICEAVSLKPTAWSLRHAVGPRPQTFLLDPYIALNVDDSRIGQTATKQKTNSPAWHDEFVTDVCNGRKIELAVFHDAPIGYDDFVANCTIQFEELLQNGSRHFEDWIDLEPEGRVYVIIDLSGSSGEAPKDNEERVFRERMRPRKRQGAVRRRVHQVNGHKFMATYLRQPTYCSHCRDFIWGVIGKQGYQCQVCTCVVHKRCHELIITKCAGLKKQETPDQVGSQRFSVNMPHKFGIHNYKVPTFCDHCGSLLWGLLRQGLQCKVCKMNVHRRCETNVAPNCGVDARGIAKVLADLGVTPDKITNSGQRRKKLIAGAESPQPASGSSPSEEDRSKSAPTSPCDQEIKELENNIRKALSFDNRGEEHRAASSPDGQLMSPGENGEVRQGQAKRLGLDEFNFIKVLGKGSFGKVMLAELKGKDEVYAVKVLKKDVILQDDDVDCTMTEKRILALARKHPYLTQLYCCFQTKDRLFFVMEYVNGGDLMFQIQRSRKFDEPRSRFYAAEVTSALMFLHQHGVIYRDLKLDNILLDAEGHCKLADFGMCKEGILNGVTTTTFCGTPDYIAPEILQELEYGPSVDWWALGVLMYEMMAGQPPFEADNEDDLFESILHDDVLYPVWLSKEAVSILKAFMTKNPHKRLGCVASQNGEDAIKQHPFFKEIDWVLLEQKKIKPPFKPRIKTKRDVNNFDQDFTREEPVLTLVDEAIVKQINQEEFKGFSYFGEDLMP
Outline: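 Read-out was fluorescence-polarization competition between phosphorylated substrate and a rhodamine PKC tracer for an anti-phosphoserine antibody, added with EDTA stop after an 80 min room-temperature kinase reaction with ATP and protein substrate (Mg2+/Ca2+ buffer). Enzyme (10 ng/ml final) was preincubated with compound for 30 min.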

human ROCKα/ROCKII mix = molecular target: T2, human ROCKα/ROCKII mix (Homo sapiens, UniProt O75116); test: Biochemical assay for ROCK (fluorescence polarization, ROCK IMAP Kit); conditions: compounds of Formula XIV, Table 3
T2 construct: purchased Upstate Biotechnology 14-451
T2 sequence (O75116 11-552 limits assumed): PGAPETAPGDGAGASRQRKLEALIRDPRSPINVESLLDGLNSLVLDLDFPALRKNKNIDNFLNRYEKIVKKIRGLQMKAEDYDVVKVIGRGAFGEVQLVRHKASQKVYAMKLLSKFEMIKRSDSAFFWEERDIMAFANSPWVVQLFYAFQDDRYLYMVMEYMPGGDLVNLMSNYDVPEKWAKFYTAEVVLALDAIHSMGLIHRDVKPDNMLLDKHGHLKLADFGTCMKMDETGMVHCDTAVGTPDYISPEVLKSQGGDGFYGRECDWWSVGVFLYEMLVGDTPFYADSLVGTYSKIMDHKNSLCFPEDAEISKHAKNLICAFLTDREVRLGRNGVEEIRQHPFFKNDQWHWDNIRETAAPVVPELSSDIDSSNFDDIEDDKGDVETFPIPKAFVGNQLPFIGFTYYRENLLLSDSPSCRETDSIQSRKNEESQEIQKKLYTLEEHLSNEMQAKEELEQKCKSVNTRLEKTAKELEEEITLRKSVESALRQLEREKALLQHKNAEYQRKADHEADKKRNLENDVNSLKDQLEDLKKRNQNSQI

IC50 (PKC epsilon) | IC50 (human ROCKα/ROCKII mix) | Structure (SMILES)
0.5 to 5 µM | 0.05 to 0.5 µM | Cc1ccc(CN2CCC(NC(=O)CC(N)c3ccc(C(=O)Nc4ccncc4)cc3)CC2)s1 (centres unmarked) [Compound 202]
0.5 to 5 µM | 0.05 to 0.5 µM | NC(CC(=O)NCc1ccccc1)c1ccc(C(=O)Nc2ccncc2)cc1 (centres unmarked) [Compound 213, 4-(1-Amino-2-benzylcarbamoyl-ethyl)-N-pyridin-4-yl-benzamide]
0.5 to 5 µM | 0.05 to 0.5 µM | CC(NC(=O)CC(N)c1ccc(C(=O)Nc2ccncc2)cc1)c1ccccc1 (centres unmarked) [Compound 215, 4-[1-Amino-2-(1-phenyl-ethylcarbamoyl)-ethyl]-N-pyridin-4-yl-benzamide]
0.5 to 5 µM | 0.05 to 0.5 µM | CC[C@@H](NC(=O)CC(N)c1ccc(C(=O)Nc2ccncc2)cc1)c1ccccc1 (stereo partly drawn) [Compound 216, 4-[1-Amino-2-(1-(R)-phenyl-propylcarbamoyl)-ethyl]-N-pyridin-4-yl-benzamide]
0.5 to 5 µM | 0.05 to 0.5 µM | CC[C@H](NC(=O)CC(N)c1ccc(C(=O)Nc2ccncc2)cc1)c1ccccc1 (stereo partly drawn) [Compound 217, 4-[1-Amino-2-(1-(S)-phenyl-propylcarbamoyl)-ethyl]-N-pyridin-4-yl-benzamide]
0.5 to 5 µM | 0.05 to 0.5 µM | CC(C)(NC(=O)CC(N)c1ccc(C(=O)Nc2ccncc2)cc1)c1ccccc1 (centres unmarked) [Compound 218, 4-[1-Amino-2-(1-methyl-1-phenyl-ethylcarbamoyl)-ethyl]-N-pyridin-4-yl-benzamide]
0.05 to 0.5 µM | 0.05 to 0.5 µM | NC(CC(=O)NC1CCCc2ccccc21)c1ccc(C(=O)Nc2ccncc2)cc1 (centres unmarked) [Compound 223, 4-[1-Amino-2-(1,2,3,4-tetrahydro-naphtalen-1-ylcarbamoyl)-ethyl]-N-pyridin-4-yl-benzamide]
0.5 to 5 µM | 0.05 to 0.5 µM | NC(CC(=O)NC(c1ccccc1)c1ccccc1)c1ccc(C(=O)Nc2ccncc2)cc1 (centres unmarked) [Compound 225, 4-[1-Amino-2-(benzhydryl-carbamoyl)-ethyl]-N-pyridin-4-yl-benzamide]
0.5 to 5 µM | 0.05 to 0.5 µM | NC(CC(=O)NC1c2ccccc2-c2ccccc21)c1ccc(C(=O)Nc2ccncc2)cc1 (centres unmarked) [Compound 227, 4-[1-Amino-2-(9H-fluoren-9-ylcarbamoyl)-ethyl]-N-pyridin-4-yl-benzamide]
0.05 to 0.5 µM | 0.05 to 0.5 µM | NC(CC(=O)NC1CCc2ccccc21)c1ccc(C(=O)Nc2ccncc2)cc1 (centres unmarked) [Compound 228, 4-[1-Amino-2-(indan-1-ylcarbamoyl)-ethyl]-N-pyridin-4-yl-benzamide]
0.5 to 5 µM | 0.05 to 0.5 µM | Cc1ccccc1CNC(=O)CC(N)c1ccc(C(=O)Nc2ccncc2)cc1 (centres unmarked) [Compound 231, 4-[1-Amino-2-(2-methyl-benzylcarbamoyl)-ethyl]-N-pyridin-4-yl-benzamide]
0.5 to 5 µM | 0.05 to 0.5 µM | Cc1cccc(CNC(=O)CC(N)c2ccc(C(=O)Nc3ccncc3)cc2)c1 (centres unmarked) [Compound 232, 4-[1-Amino-2-(3-methyl-benzylcarbamoyl)-ethyl]-N-pyridin-4-yl-benzamide]
0.5 to 5 µM | 0.05 to 0.5 µM | Cc1ccc(CNC(=O)CC(N)c2ccc(C(=O)Nc3ccncc3)cc2)cc1 (centres unmarked) [Compound 233, 4-[1-Amino-2-(4-methyl-benzylcarbamoyl)-ethyl]-N-pyridin-4-yl-benzamide]
0.5 to 5 µM | 0.05 to 0.5 µM | Cc1ccc(C)c(CNC(=O)CC(N)c2ccc(C(=O)Nc3ccncc3)cc2)c1 (centres unmarked) [Compound 234, 4-[1-Amino-2-(2,5-dimethyl-benzylcarbamoyl)-ethyl]-N-pyridin-4-yl-benzamide]
5 to 50 µM | 0.05 to 0.5 µM | COc1cccc(CNC(=O)CC(N)c2ccc(C(=O)Nc3ccncc3)cc2)c1OC (centres unmarked) [Compound 238, 4-[1-Amino-2-(2,3-dimethoxy-benzylcarbamoyl)-ethyl]-N-pyridin-4-yl-benzamide]
0.5 to 5 µM | 0.05 to 0.5 µM | COc1ccc(CNC(=O)CC(N)c2ccc(C(=O)Nc3ccncc3)cc2)cc1 (centres unmarked) [Compound 239, 4-[1-Amino-2-(4-methoxy-benzylcarbamoyl)-ethyl]-N-pyridin-4-yl-benzamide]
5 to 50 µM | 0.05 to 0.5 µM | COc1ccc(CNC(=O)CC(N)c2ccc(C(=O)Nc3ccncc3)cc2)cc1OC (centres unmarked) [Compound 240, 4-[1-Amino-2-(3,4-dimethoxy-benzylcarbamoyl)-ethyl]-N-pyridin-4-yl-benzamide]
0.5 to 5 µM | 0.05 to 0.5 µM | COc1ccc(OC)c(CNC(=O)CC(N)c2ccc(C(=O)Nc3ccncc3)cc2)c1 (centres unmarked) [Compound 242, 4-[1-Amino-2-(2,5-dimethoxy-benzylcarbamoyl)-ethyl]-N-pyridin-4-yl-benzamide]
0.5 to 5 µM | 0.05 to 0.5 µM | COc1cccc(OC)c1CNC(=O)CC(N)c1ccc(C(=O)Nc2ccncc2)cc1 (centres unmarked) [Compound 243, 4-[1-Amino-2-(2,6-dimethoxy-benzylcarbamoyl)-ethy]-N-pyridin-4-yl-benzamide]
0.5 to 5 µM | 0.05 to 0.5 µM | COc1ccc(C(NC(=O)CC(N)c2ccc(C(=O)Nc3ccncc3)cc2)c2ccc(OC)cc2)cc1 (centres unmarked) [Compound 244, 4-(1-Amino-2-{[bis-(4-methoxy-phenyl)-methyl]-carbamoyl}-ethyl)-N-pyridin-4-yl-benzamide]
0.5 to 5 µM | 0.05 to 0.5 µM | NC(CC(=O)NCc1ccccc1Cl)c1ccc(C(=O)Nc2ccncc2)cc1 (centres unmarked) [Compound 246, 4-[1-Amino-2-(2-chloro-benzylcarbamoyl)-ethyl]-N-pyridin-4-yl-benzamide]
0.5 to 5 µM | 0.05 to 0.5 µM | Cc1cccc(Cl)c1CNC(=O)CC(N)c1ccc(C(=O)Nc2ccncc2)cc1 (centres unmarked) [Compound 247, 4-[1-Amino-2-(2-chloro-6-methyl-benzylcarbamoyl)-ethyl]-N-pyridin-4-yl-benzamide]
0.05 to 0.5 µM | 0.05 to 0.5 µM | NC(CC(=O)NCc1cccc(Cl)c1)c1ccc(C(=O)Nc2ccncc2)cc1 (centres unmarked) [Compound 248, 4-[1-Amino-2-(3-chloro-benzylcarbamoyl)-ethyl]-N-pyridin-4-yl-benzamide]
0.5 to 5 µM | 0.05 to 0.5 µM | Cc1ccc(CNC(=O)CC(N)c2ccc(C(=O)Nc3ccncc3)cc2)cc1Cl (centres unmarked) [Compound 249, 4-[1-Amino-2-(3-chloro-4-methyl-benzylcarbamoyl)-ethyl]-N-pyridin-4-yl-benzamide]
0.5 to 5 µM | 0.05 to 0.5 µM | NC(CC(=O)NCc1cc(Cl)cc(Cl)c1)c1ccc(C(=O)Nc2ccncc2)cc1 (centres unmarked) [Compound 250, 4-[1-Amino-2-(3,5-dichloro-benzylcarbamoyl)-ethyl]-N-pyridin-4-yl-benzamide]
0.5 to 5 µM | 0.05 to 0.5 µM | NC(CC(=O)NCc1cc(Cl)ccc1Cl)c1ccc(C(=O)Nc2ccncc2)cc1 (centres unmarked) [Compound 251, 4-[1-Amino-2-(3,6-dichloro-benzylcarbamoyl)-ethyl]-N-pyridin-4-yl-benzamide]

Structure (SMILES) | IC50 (PKC epsilon) | IC50 (human ROCKα/ROCKII mix)
CC(NC(=O)CC(N)c1ccc(C(=O)Nc2ccncc2)cc1)c1cccc2ccccc12 (centres unmarked) [Compound 229, 4-{1-Amino-2-(1-naphtalen-1-yl-ethylcarbamoyl)-ethyl]-N-pyridin-4-yl-benzamide] | 0.5 to 5 µM | 0.05 to 0.5 µM
CC(NC(=O)CC(N)c1ccc(C(=O)Nc2ccncc2)cc1)c1cccc2ccccc12 (centres unmarked) [Compound 230, 4-[1-Amino-2-(1-naphtalen-1-yl-ethylcarbamoyl)-ethyl]-N-pyridin-4-yl-benzamide] | 0.5 to 5 µM | 0.05 to 0.5 µM
